Legend:
[1] = Ultrasound-responsive NO release, real-time NO analysis; type: physicochemical; conditions: FIG. 5
Procedure: Subsequently, ultrasound-responsive NO release of the nanogenerator was monitored under physiological conditions (DPBS, pH 7.4, 37° C.). When ultrasound was absent, only a small overall amount (1.53 nmol/mg) of NO was released.

[2] = Behaviour in water (aggregation, solubility); type: physicochemical

- ultrasound-responsive nitric oxide release behavior [1]: complete NO-releasability
- water solubility [2]: water-insoluble
SMILES: CCC(C)N(N=O)c1ccc(N(N=O)C(C)CC)cc1 (centres unmarked) [BNN6, N,N′-di-sec-butyl-N,N′-dinitroso-1,4-phenylenediamine]

— patent US11660342B2, “Method for increasing permeability of blood-brain barrier” (POSTECH Research and Business Development Foundation, priority 2020, dated 2023)
